Results on five compounds are retold here after US10519152B2, “Compounds and their use in treating cancer” (AstraZeneca AB, priority 2017, dated 2019).

The target of assay [1] is T1, recombinant human Estrogen Receptor alpha ligand binding domain, residues 307-554 (ER alpha-LBD (GST)) (Homo sapiens, UniProt P03372).
T1 construct: made in house
T1 sequence (P03372 307-554): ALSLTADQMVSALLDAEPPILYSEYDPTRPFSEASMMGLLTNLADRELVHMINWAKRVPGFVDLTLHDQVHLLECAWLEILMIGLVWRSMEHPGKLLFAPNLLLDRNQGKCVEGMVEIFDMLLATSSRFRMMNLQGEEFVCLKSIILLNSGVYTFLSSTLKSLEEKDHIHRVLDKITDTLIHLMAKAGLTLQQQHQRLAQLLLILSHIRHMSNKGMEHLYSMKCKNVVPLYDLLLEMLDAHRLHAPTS
In words: ERα binding assay (LanthaScreen TR-FRET competition). The conditions noted are these: TR-FRET competition with Fluormone ES2 tracer, 4 hours at room temperature; single experiment or average of two or more. The protocol:
The ability of compounds to bind to isolated Estrogen Receptor Alpha Ligand binding domain (ER alpha-LBD (GST)) was assessed in competition assays using a LanthaScreen™ Time-Resolved Fluorescence Resonance Energy Transfer (TR-FRET) detection end-point. For the LanthaScreen TR-FRET endpoint, a suitable fluorophore (Fluormone ES2, ThermoFisher, Product code P2645) and recombinant human Estrogen Receptor alpha ligand binding domain, residues 307-554 (expressed and purified in-house) were used to measure compound binding. The assay principle is that ER alpha-LBD (GST) is added to a fluorescent ligand to form a receptor/fluorophore complex. A terbium-labelled anti-GST antibody (Product code PV3551) is used to indirectly label the receptor by binding to its GST tag, and competitive binding is detected by a test compound's ability to displace the fluorescent ligand, resulting in a loss of TR-FRET signal between the Tb-anti-GST antibody and the tracer. The assay was performed as follows with all reagent additions carried out using the Beckman Coulter BioRAPTR FRD microfluidic workstation: • 1. Acoustic dispense 120 nL of the test compound into a black low volume 384 well assay plates. • 2. Prepare 1×ER alpha-LBD/Tb-antiGST Ab in ES2 screening buffer and incubate for 15 minutes. • 3. Dispense 6 μL of the […] reagent into each well of the assay plate followed by 6 μL of Fluorophore reagent into each well of the assay plate • 4. Cover the assay plate to protect the reagents from light and evaporation, and incubate at room temperature for 4 hours. • 5. Excite at 337 nm and measure the fluorescent emission signal of each well at 490 nm and 520 nm using the BMG PheraSTAR.
Compounds were dosed directly from a compound source microplate containing serially diluted compound (4 wells containing 10 mM, […] and 10 nM final compound respectively) to an assay microplate using the Labcyte Echo 550. The Echo 550 is a liquid handler that uses acoustic technology to perform direct microplate-to-microplate transfers of DMSO compound solutions and the system can be programmed to transfer multiple small nL volumes of compound from the different source plate wells to give the desired serial dilution of compound in the assay which is then back-filled to normalise the DMSO concentration across the dilution range.
In total 120 nL of compound plus DMSO were added to each well and compounds were tested in a 12-point concentration response format over a final compound concentration range of 10, 2.917, 1.042, 0.2083, 0.1, 0.0292, 0.0104, 0.002083, 0.001, 0.0002917, 0.0001042, and 0.00001 μM respectively. TR-FRET dose response data obtained with each compound was exported into a suitable software package (such as Origin or Genedata) to perform curve fitting analysis. Competitive ER alpha binding was expressed as an IC50 value. This was determined by calculation of the concentration of compound that was required to give a 50% reduction in tracer compound binding to ER alpha-LBD.
In general terms: TR-FRET usually uses a lanthanide donor and a delayed reading to cut background.

For assay [2], the target named is T2, Estrogen Receptor (ERα) in MCF-7 human ductal carcinoma breast cell line (Homo sapiens, UniProt P03372).
T2 construct: endogenous in cells; host or cells: MCF-7
T2 sequence (P03372 1-595): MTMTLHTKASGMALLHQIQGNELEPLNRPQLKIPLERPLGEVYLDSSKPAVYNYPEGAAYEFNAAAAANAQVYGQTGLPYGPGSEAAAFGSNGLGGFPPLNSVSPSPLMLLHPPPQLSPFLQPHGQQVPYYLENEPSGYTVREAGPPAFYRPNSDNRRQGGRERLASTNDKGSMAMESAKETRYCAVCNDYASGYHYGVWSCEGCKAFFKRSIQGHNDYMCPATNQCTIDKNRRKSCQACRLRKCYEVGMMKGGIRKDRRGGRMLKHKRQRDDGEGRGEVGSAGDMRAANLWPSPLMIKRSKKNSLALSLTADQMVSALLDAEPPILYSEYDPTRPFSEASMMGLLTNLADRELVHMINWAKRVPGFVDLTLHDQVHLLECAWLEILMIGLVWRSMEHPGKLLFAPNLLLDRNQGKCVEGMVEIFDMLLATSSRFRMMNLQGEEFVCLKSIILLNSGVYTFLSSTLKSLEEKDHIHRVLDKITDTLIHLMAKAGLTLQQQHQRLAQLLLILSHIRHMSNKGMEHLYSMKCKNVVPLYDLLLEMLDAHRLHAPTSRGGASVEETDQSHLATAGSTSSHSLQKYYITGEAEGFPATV
Kind of assay: MCF-7 ER degradation assay (cell based immuno-fluorescence). The conditions noted are these: MCF-7 cells, 18-22 hours incubation, 50% reduction of ERα expression; single experiment or average of two or more; read-out: MCF-7 ER degradation IC50. The protocol: MCF-7 ER Degradation Assay
The ability of compounds to down-regulate Estrogen Receptor (ER) numbers was assessed in a cell based immuno-fluorescence assay using the MCF-7 human ductal carcinoma breast cell line. MCF-7 cells were revived directly from a cryovial (approx 5×10^6 cells) in Assay Medium (phenol red free Dulbecco's Modified Eagle's medium (DMEM); Sigma D5921) containing 2 mM L-Glutamine and 5% (v/v) Charcoal/Dextran treated foetal calf serum. Cells were syringed once using a sterile 18 G×1.5 inch (1.2×40 mm) broad gauge needle and cell density was measured using a Coulter Counter (Beckman). Cells were further diluted in Assay Medium to a density of 3.75×10^4 cells per mL and 40 μL per well added to transparent bottomed, black, tissue culture-treated 384 well plates (Costar, No. 3712) using a Thermo Scientific Matrix WellMate or Thermo Multidrop. Following cell seeding, plates were incubated overnight at 37° C., 5% CO2 (Liconic carousel incubator). Test data was generated using the LabCyte Echo™ model 555 compound reformatter which is part of an automated workcell (Integrated Echo 2 workcell). Compound stock solutions (10 mM) of the test compounds were used to generate a 384 well compound dosing plate (Labcyte P-05525-CV1). 40 μL of each of the 10 mM compound stock solutions was dispensed into the first quadrant well and then 1:100 step-wise serial dilutions in DMSO were performed using a Hydra II (MATRIX UK) liquid handling unit to give 40 μL of diluted compound into quadrant wells 2 (0.1 mM), 3 (1 μM) and 4 (0.01 μM), respectively. 40 μL of DMSO added to wells in row P on the source plate allowed for DMSO normalisation across the dose range. To dose the control wells 40 μL of DMSO was added to row O1 and 40 μL of 100 μM fulvestrant in DMSO was added to row O3 on the compound source plate.
The Echo uses acoustic technology to perform direct microplate-to-microplate transfers of DMSO compound solutions to assay plates. The system can be programmed to transfer volumes as low as 2.5 nL in multiple increments between microplates and in so doing generates a serial dilution of compound in the assay plate which is then back-filled to normalise the DMSO concentration across the dilution range. Compounds were dispensed onto the cell plates with a compound source plate prepared as above producing a 12 point duplicate […] dose range with 3-fold dilutions and one final 10-fold dilution using the Integrated Echo 2 workcell. The maximum signal control wells were dosed with DMSO to give a final concentration of 0.3%, and the minimum signal control wells were dosed with fulvestrant to give a final concentration of 100 nM accordingly. Plates were further incubated for 18-22 hours at 37° C., 5% CO2 and then fixed by the addition of 20 μL of 11.1% (v/v) formaldehyde solution (in phosphate buffered saline (PBS)) giving a final formaldehyde concentration of 3.7% (v/v). Cells were fixed at room temperature for 20 mins before being washed two times with 250 μL PBS/Proclin (PBS with a Biocide preservative) using a BioTek platewasher, 40 μL of PBS/Proclin was then added to all wells and the plates stored at 4° C. The fixing method described above was carried out on the Integrated Echo 2 workcell. Immunostaining was performed using an automated AutoElisa workcell. The PBS/Proclin was aspirated from all wells and the cells permeabilised with 40 μL PBS containing 0.5% Tween™ 20 (v/v) for 1 hour at room temperature. The plates were washed three times in 250 μL of PBS/0.05% (v/v) Tween 20 with Proclin (PBST with a Biocide preservative) and then 20 μL of ERα (SP1) Rabbit monoclonal antibody (Thermofisher) 1:1000 in PBS/Tween™/3% (w/v) Bovine Serum Albumin was added. The plates were incubated overnight at 4° C. (Liconic carousel incubator) and then washed three times in 250 μL of PBS/0.05% (v/v) Tween™ 20 with Proclin (PBST). […]

In the case of `Cc1ncsc1-c1ccc(CNC(=O)[C@@H]2C[C@@H](O)CN2C(=O)[C@@H](NC(=O)c2ccc(CCCCCOc3cc(F)c([C@@H]4c5[nH]c6ccccc6c5C[C@@H](C)N4CC(C)(C)F)c(F)c3)cc2)C(C)(C)C)cc1` [Example 27, (2S,4R)-1-((S)-2-(4-(5-(3,5-Difluoro-4-((1R,3R)-2-(2-fluoro-2-methylpropyl)-3-methyl-2,3,4,9-tetrahydro-1H-pyrido[3,4-b]indol-1-yl)phenoxy)pentyl)benzamido)-3,3-dimethylbutanoyl)-4-hydroxy-N-(4-(4-methylthiazol-5-yl)benzyl)pyrrolidine-2-carboxamide], in assay [1], the IC50 – broadly, the point on the concentration scale where inhibition reaches its midpoint – came to 1.1 nM. Further, the DC50 in assay [2] was determined as 22 nM.

`Cc1ncsc1-c1ccc(CNC(=O)[C@@H]2C[C@@H](O)CN2C(=O)[C@@H](NC(=O)COCCOCCOCCOc2cc(F)c([C@@H]3c4[nH]c5ccccc5c4C[C@@H](C)N3C[C@H](C)C(=O)O)c(F)c2)C(C)(C)C)cc1` [Example 30, (S)-3-((1R,3R)-1-(2,6-Difluoro-4-(((S)-13-((2S,4R)-4-hydroxy-2-((4-(4-methylthiazol-5-yl)benzyl)carbamoyl)pyrrolidine-1-carbonyl)-14,14-dimethyl-11-oxo-3,6,9-trioxa-12-azapentadecyl)oxy)phenyl)-3-methyl-1,3,4,9-tetrahydro-2H-pyrido[3,4-b]indol-2-yl)-2-methylpropanoic Acid]: in assay [1], the concentration for half-maximal inhibition (IC50) turned out to be 4.1 nM. Further, in assay [2], the DC50 was 174 nM.

Take `Cc1ncsc1-c1ccc(CNC(=O)[C@@H]2C[C@@H](O)CN2C(=O)[C@@H](N(C)C(=O)COCCOCCOCCOc2cc(F)c([C@@H]3c4[nH]c5ccccc5c4C[C@@H](C)N3CC(C)(C)F)c(F)c2)C(C)(C)C)cc1` [Example 31, (2S,4R)-1-((S)-2-(tert-Butyl)-14-(3,5-difluoro-4-((1R,3R)-2-(2-fluoro-2-methylpropyl)-3-methyl-2,3,4,9-tetrahydro-1H-pyrido[3,4-b]indol-1-yl)phenoxy)-3-methyl-4-oxo-6,9,12-trioxa-3-azatetradecanoyl)-4-hydroxy-N-(4-(4-methylthiazol-5-yl)benzyl)pyrrolidine-2-carboxamide]: the IC50 in assay [1] stood at 0.6 nM. Further, in assay [2], the DC50 worked out at 0.3 nM.

Consider `Cc1ncsc1-c1ccc(CNC(=O)[C@@H]2C[C@@H](O)CN2C(=O)[C@@H](NCc2ccc(COc3cc(F)c([C@@H]4c5[nH]c6ccccc6c5C[C@@H](C)N4CC(C)(C)F)c(F)c3)cc2)C(C)(C)C)cc1` [Example 35, (2S,4R)-1-((S)-2-((4-((3,5-difluoro-4-((1R,3R)-2-(2-fluoro-2-methylpropyl)-3-methyl-2,3,4,9-tetrahydro-1H-pyrido[3,4-b]indol-1-yl)phenoxy)methyl)benzyl)amino)-3,3-dimethylbutanoyl)-4-hydroxy-N-(4-(4-methylthiazol-5-yl)benzyl)pyrrolidine-2-carboxamide], for which, in assay [1], the IC50 turned out to be 1 nM. Moreover, the DC50 in assay [2] worked out at 9.1 nM.

As to `Cc1ncsc1-c1ccc(CNC(=O)[C@@H]2C[C@@H](O)CN2C(=O)[C@@H](NC(=O)c2ccc(COc3cc(F)c([C@@H]4c5[nH]c6ccccc6c5C[C@@H](C)N4CC(C)(C)F)c(F)c3)cc2)C(C)(C)C)cc1` [Example 36, (2S,4R)-1-((S)-2-(4-((3,5-Difluoro-4-((1R,3R)-2-(2-fluoro-2-methylpropyl)-3-methyl-2,3,4,9-tetrahydro-1H-pyrido[3,4-b]indol-1-yl)phenoxy)methyl)benzamido)-3,3-dimethylbutanoyl)-4-hydroxy-N-(4-(4-methylthiazol-5-yl)benzyl)pyrrolidine-2-carboxamide], in assay [1], the IC50 was 1 nM. In addition, in assay [2], the DC50 is 1 nM.
